Marks after values point to notes of the source that are not given here. *1 amine or outer side, *2 acyl side, *3 side chain or, on linkers, in order; H or OH if unused. Where no end group is shown, it is not given here. [ ]: non-standard residue; d: D form. The star is where a group is joined. aminoluciferin = O=C(O)[C@H]1CSC(c2nc3ccc(N*)cc3s2)=N1; AFC = O=c1cc(C(F)(F)F)c2ccc(N*)cc2o1; AMC = Cc1cc(=O)oc2cc(N*)ccc12; Suc = O=C(CCC(=O)[*:2])[*:1]; code Z = not defined here; Cbz = O=C(OCc1ccccc1)*

Results on 34 compounds are retold here after US20070048812A1, “Cell-based luminogenic and nonluminogenic proteasome assays” (priority 2005, published 2007).

The test system of series [1] is proteasome or luciferase activity in HL-60 cells. The series can be described thus: Screen of cell membrane permeabilization reagents in cell-based luminescent proteasome reaction. To be noted: 25,000 HL-60 cells, detergent 0.05 and 0.1% final, 22° C., LLVY-aminoluciferin. As to the method:
FIGS. 10A-C. Screen for cell membrane permeabilization reagents suitable to detect proteasomes in a cell-based luminescent reaction.
Other permeabilizing agents were screened for those suitable to detect proteasome activity in a cell-based assay (FIGS. 10A-C). Reagents containing low concentrations of various detergents (0.05 and 0.1% final) were prepared. 100 μl/well samples containing 25,000 HL-60 cells in complete medium were added to a 96-well plate and equilibrated at 37° C. The plate and reagents were cooled to 22° C. and an equal volume of reagent was added to each sample. The plate was shaken for 1 minute, then incubated at 22° C. Luminescence was then determined over time.

Series [2] relates to proteasome activity in HL-60 cells. The series can be described thus: Cell-based luminescent proteasome assay in HL-60 cells. Particulars: 1.5 hour treatment (FIG. 2B).
The test system of series [3] is untreated viable HL-60 or Jurkat cells. The series can be described thus: Protease retention: substrate cleavage in untreated viable cells. The series is classed as cell-based. Further details: key: None denotes no statistical activity above control population.; (+) to (+++++) denotes the range of activity above control population from modest to robust; (+) to (+++++) denotes the range of activity above control population from modest to robust; (+) to (+++++) denotes the range of activity above control population from modest to robust; (+) to (+++++) denotes the range of activity above control population from modest to robust; (+) to (+++++) denotes the range of activity above control population from modest to robust. Particulars: proteolytic activity on substrate in untreated viable HL-60 or Jurkat cells, above control population; 15-30 min 37° C. How it is done:
(§1) All substrates were solubilized in DMSO from 10 to 100 mM depending upon inherent solubility. Fluorescent substrates were diluted to 100 μM to 1 mM in 10 mM Hepes, pH 7.5 or matched cell culture medium with 10% serum and added in 1/10th volumes to lysed (freeze fractured, sonicated, or detergent) or untreated viable cells in white-walled, clear bottomed 96-well plates. HL-60 or Jurkat were used in the experimentation interchangeably because of their easily manipulated suspension phenotype. Plates were incubated for 15-30 minutes at 37° C. prior to measuring fluorescence by the CytoFluor II.
(§2) Luminescent substrates were added to a luciferin detection cake (Promega V859A) resuspended in 2 ml 10 mM Hepes, pH 7.5 to 500 μM. ⅕^th volume of the proluminescent reaction mixes were added to lysed (freeze fractured, sonicated, or detergent) or untreated viable cells in white-walled, clear bottomed 96-well plates. Again, HL-60 or Jurkat were used in the experimentation interchangeably. Plates were incubated at 37° C. in a MeCour' circulating heat block controlled by a Caron 2050 W exchange unit. Luminescence was measured between 15 and 30 minutes (signal steady state).
(§3) A broad variety of proteolytic substrates were examined in an effort to characterize potential substrate preferences for protease release or retention in compromised or viable cells (see Table 3). […] Non-blocked substrates (H- and the like) were examined to include the contribution of aminopeptidase activities. From this panel, at least three proteolytic profiles emerged: an aminopeptidase-like activity preferring unblocked Ala-Ala-Phe tripeptide, a proteosomal (chymotrypsin-like) activity measured by release of blocked Leu-Leu-Val-Tyr (SEQ ID NO:1) peptides, and an exceedingly labile activity by Gly-Phe, Gly-Ala, Phe-, Tyr- or Gly-Gly-Leu substrates. The latter activities were only measurable in viable, intact cells. Of further significance is that several fluorophores or proluminescent labels can be used to detect these activities, ultimately allowing for enhanced downstream multiplexing flexibility.

Series [4] concerns lysed HL-60 or Jurkat cells. The series can be described thus: Protease release: substrate cleavage in lysed (compromised) cells. Particulars: proteolytic activity on substrate in lysed (freeze fractured, sonicated or detergent) HL-60 or Jurkat cells, above control population; 15-30 min 37° C. The series is classed as cell-based. Further details: key: None denotes no statistical activity above control population.; (+) to (+++++) denotes the range of activity above control population from modest to robust; (+) to (+++++) denotes the range of activity above control population from modest to robust; (+) to (+++++) denotes the range of activity above control population from modest to robust; (+) to (+++++) denotes the range of activity above control population from modest to robust; (+) to (+++++) denotes the range of activity above control population from modest to robust. How it is done: as §1, §2, §3

Series [5] relates to SK-MEL-28 cells. The series can be described thus: Multiplexed protease retention (Gly-Phe-AFC) and Caspase-Glo 3/7 assay. Type of series: cell-based. To be noted: serial dilutions, 5 hours. As to the method: (§4) SK-MEL-28 or ACHN cells were seeded into white-walled, clear bottomed 96 well plates at a density of 10,000 cells per well in 100 μl volumes and allowed to attach at 37° C. in 5% CO2 for a period of 2 hours. After attachment, 50 μl of medium was carefully removed and replaced with serial dilutions of either ionomycin or staurosporine in MEM+10% FBS. Medium only served as control. The plate was incubated for an additional 5 hours. A 1 mM solution of Gly-Phe-AFC was made in MEM and added to the wells in a 1/10th volume. Resulting fluorescence was measured using a CytoFluor II. Caspase-Glo™ 3/7 reagent was then added and luminescence measure using a BMG FLUOstar Optima.

The test system of series [6] is ACHN cells. The series is described as above. Type of series: cell-based. Particulars: serial dilutions, 5 hours. As to the method:
as §4

On to `C[C@H](CCC(=O)NCCC[N+](C)(C)CCCS(=O)(=O)[O-])[C@H]1CC[C@H]2[C@@H]3[C@H](O)C[C@@H]4C[C@H](O)CC[C@]4(C)[C@H]3C[C@H](O)[C@]12C` [CHAPS], for which the “effect on proteasome or luciferase activity” value in series [1] is on record as “negative effects”.
For `CCCC[C@@H](C=O)NC(=O)[C@H](CC(C)C)NC(=O)OCc1ccccc1` [Calpeptin, calpeptin], the “effect on proteasome activity” value in series [2] is given as “minimal effect”.
As for `Cc1cc(=O)oc2cc(NC(=O)[C@@H](N)Cc3ccccc3)ccc12` [H-Phe-AMC], the Retention result in series [3] was “+++”. For the same compound, the Release entry in series [4] was “None”.
On the same counts, the results for `Cc1cc(=O)oc2cc(NC(=O)[C@@H](N)Cc3ccc(O)cc3)ccc12` [H-Tyr-AMC] are “++” and “None”.
With `CCCCCCCCCCCCOS(=O)(=O)[O-].[Na+]` [SDS], the “effect on proteasome or luciferase activity” value in series [1] is “negative effects”.
With `C[C@H](CCC(=O)O)C[C@H](C)C[C@H](C)C(=O)/C=C(\O)[C@H](C)C[C@H](C)C/C=C/[C@@H](C)[C@@H](O)[C@@H](C)[C@@H](O)C[C@@H]1CC[C@@](C)([C@H]2CC[C@@](C)([C@@H](C)O)O2)O1` [ionomycin], the “cytotoxicity profile (protease retention viability and caspase 3/7 activity)” value in series [5] is recorded as “necrotic-type profile”.
On to `CN[C@@H]1C[C@H]2O[C@@](C)([C@@H]1OC)n1c3ccccc3c3c4c(c5c6ccccc6n2c5c31)C(=O)NC4` [staurosporine], for which the “cytotoxicity profile (protease retention viability and caspase 3/7 activity)” value in series [5] is “caspase activation (and therefore apoptosis induction) is evident”; in series [6], “apoptotic profile”.
On to “(Ala-Ala-Phe)2-R110 [(Ala-Ala-Phe) 2 R110]”, for which the Retention entry in series [3] was “None”. In series [4], the Release entry was “++++”.
On the same counts, the results for (Gly-Phe)2-R110 [(Gly-Phe)2 R110] are “None” and “None”.
Consider Ac-Ala-Ala-Tyr-{AMC}, for which the Retention entry in series [3] is listed as “None”. In series [4], the Release result is on record as “None”.
Turning to Ala-Ala-Phe-aminoluciferin, the Retention result in series [3] is “None”. For the same compound, in series [4], the Release result is “++++”.
Consider Ala-Ala-Phe-{AMC}, for which the Retention result in series [3] is “None”. Also, in series [4], the Release result is listed as “++++”.
The matching figures for Cbz-Gly-Ala-Met-{AMC}: “None” and “None”.
On the same counts, the results for Cbz-Gly-Gly-Leu-{AMC} are “++*” and “None”.
On the same counts, the results for Cbz-Phe-Arg-{AMC} are “None^1” and “None”.
In the case of “Glutyl-Ala-Ala-Phe-AMC [Gluty-Ala-Ala-Phe-AMC]”, in series [3], the Retention result was “None”. Further, the Release result in series [4] is “None”.
Consider Gly-Phe-{AFC}, for which the Retention entry in series [3] is “++++”. In addition, the Release result in series [4] is “None”.
The matching figures for H-Gly-Ala-{AMC}: “++” and “None”.
On the same counts, the results for H-Gly-Gly-{AMC} are “None” and “None”.
Regarding H-Gly-Phe-{AMC}, the Retention result in series [3] is “++”. Besides, in series [4], the Release result is “None”.
On the same counts, the results for H-Pro-Phe-Arg-{AMC} are “None” and “None”.
The matching figures for H-[dA]-Leu-Lys-{AMC}: “None” and “None”.
On the same counts, the results for Ser-Tyr-{AFC} are “None” and “None”.
Take Suc-Ala-Ala-Phe-{AMC}: the Retention result in series [3] is given as “None”. For the same compound, the Release result in series [4] is recorded as “None”.
“Suc-Arg-Pro-Phe-His-Leu-Leu-Val-Tyr-AMC (Suc-RPFHLLVY-{AMC}; SMILES Cc1cc(=O)oc2cc(NC(=O)[C@H](Cc3ccc(O)cc3)NC(=O)[C@@H](NC(=O)[C@H](CC(C)C)NC(=O)[C@H](CC(C)C)NC(=O)[C@H](Cc3c[nH]cn3)NC(=O)[C@H](Cc3ccccc3)NC(=O)[C@@H]3CCCN3C(=O)[C@H](CCCNC(=N)N)NC(=O)CCC(=O)O)C(C)C)ccc12) [S-R-P-F-H-L-L-V-Y-AMC]”: the Retention entry in series [3] is “None”. For the same compound, the Release entry in series [4] is “None”.
Take “Suc-Leu-Leu-Val-Tyr-AMC (Suc-LLVY-{AMC}; SMILES Cc1cc(=O)oc2cc(NC(=O)[C@H](Cc3ccc(O)cc3)NC(=O)[C@@H](NC(=O)[C@H](CC(C)C)NC(=O)[C@H](CC(C)C)NC(=O)CCC(=O)O)C(C)C)ccc12)”: the Retention entry in series [3] was “None”. For the same compound, the Release entry in series [4] is “+”.
Regarding Tergitol® NP-9, the “effect on proteasome or luciferase activity” value in series [1] is on record as “did not substantially effect”.
The same measure, in the same setting: under Triton X-100 stands “did not substantially effect”; under Tween®-20, “negative effects”.
For “Z-Arg-Leu-Arg-Gly-Gly-AMC (RLRGG; Z N-terminal, AMC C-terminal)”, the Retention entry in series [3] is “None”. Besides, in series [4], the Release entry is “None”.
In the case of “Z-Leu-Arg-Gly-Gly-AMC (LRGG; Z N-terminal, AMC C-terminal)”, the Retention result in series [3] is “None”. Further, the Release entry in series [4] is given as “None”.
Take “Z-Leu-Arg-aminoluciferin [Z-Leu-Arg-Aluc]”: the Retention result in series [3] is recorded as “None”. The Release result in series [4] was “None”.
Turning to “Z-Leu-Leu-Val-Tyr-aminoluciferin ({code Z}-LLVY-aminoluciferin; reading uncertain; also: printed as Z-Leu-Leu-Val-Tyr-aminoluciferin) [Z-Leu-Leu-Val-Tyr-Aluc]”, the Retention entry in series [3] is given as “None”. The Release entry in series [4] was “++”.
Take “Z-Phe-Arg-aminoluciferin [Z-Phe-Arg-Aluc]”: the Retention entry in series [3] was “None”. The Release entry in series [4] was “None”.
